In patent publication US20240016953A1, “TARGETED DELIVERY OF NICOTINAMINDE ADENINE DINUCLEOTIDE SALVAGE PATHWAY INHIBITORS” (Seagen Inc., priority 2016, published 2024):

Key:
[1] = tested on: L540cy (Hodgkin's lymphoma); experiment: Cytotoxicity (CellTiter-Glo) assay, L540cy; format: cell-based; conditions: read-out: IC50, Cytotoxicity L540cy
Method: (§1) Example 99: Binding and cytoxicity of NAMPTi compounds. NAMPTi compounds and derivatives thereof bearing functional groups on their NAMPT Tail (TN) Units for covalent attachment as a NAMPT Drug Unit to a Linker Unit of a Drug Linker compound or Ligand Drug Conjugate were evaluated for binding to enzymatically competent NAMPT using a fluorescence polarization assay as described in Example X, and for cytotoxicity using the CellTiter-Glo™ assay as described in Example XX. […] In vitro cytotoxicities were more varied, with differences in membrane permeability potentially influencing the observed IC50 values. Tighter-binding compounds determined from the polarization assay representation various NAMPT Head Unit classes were selected for further elaboration into drug linker moieties within Drug Linker compounds and Ligand Drug Conjugates. Those elaborations employed carbamate or benzyl ether functional groups or methylene-alkoxy carbamate (MAC) units for covalent attachment of the NAMPT Drug Unit to a self-immolative Spacer Unit in the Linker Units of the drug linker moieties, depending on the functional group presented by the TN Unit.

[2] = tested on: MOLM-13 (acute myeloid leukemia); experiment: Cytotoxicity (CellTiter-Glo) assay, MOLM-13; format: cell-based; conditions: Homo sapiens, MOLM-13, read-out: IC50, Cytotoxicity MOLM-13
Method: as §1

NAMPT = target: T1, NAMPT (Homo sapiens, UniProt P43490); experiment: Fluorescence polarization (FP) assay for binding to purified NAMPT; conditions: for IC50: NAMPT 120 nM, fluorescent probe 30 nM, 4 hours at room temp
T1 construct: made in house; host or cells: E. coli (pET28a vector, Novagen)

[3] = tested on: BxPC-3 (pancreatic adenocarcinoma); experiment: Cytotoxicity (CellTiter-Glo) assay, BxPC-3; format: cell-based; conditions: Homo sapiens, BXPC-3, read-out: IC50, Cytotoxicity BxPC-3
Method: as §1

[4] = tested on: HepG2 (hepatocellular carcinoma); experiment: Cytotoxicity (CellTiter-Glo) assay, HepG2; format: cell-based; conditions: Homo sapiens, HepG2, read-out: IC50, Cytotoxicity HepG2
Method: as §1

T1 sequence (P43490 whole entry): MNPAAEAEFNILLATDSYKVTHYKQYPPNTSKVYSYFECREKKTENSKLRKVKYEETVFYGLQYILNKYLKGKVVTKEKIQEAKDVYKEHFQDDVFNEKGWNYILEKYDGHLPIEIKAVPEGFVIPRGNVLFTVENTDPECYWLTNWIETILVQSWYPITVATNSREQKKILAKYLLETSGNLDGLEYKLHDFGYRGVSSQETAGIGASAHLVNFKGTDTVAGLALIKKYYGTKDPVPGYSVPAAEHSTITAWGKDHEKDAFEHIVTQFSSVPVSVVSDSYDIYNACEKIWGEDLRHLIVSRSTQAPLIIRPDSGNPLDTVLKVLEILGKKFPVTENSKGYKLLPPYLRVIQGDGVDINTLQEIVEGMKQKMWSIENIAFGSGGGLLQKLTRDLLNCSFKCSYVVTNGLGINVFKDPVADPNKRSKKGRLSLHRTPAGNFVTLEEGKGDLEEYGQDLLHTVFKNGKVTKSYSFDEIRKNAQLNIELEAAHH

| Structure (SMILES) | IC50 (NAMPT) [nM] | IC50 [1] [nM] | IC50 [2] [nM] | IC50 [3] [nM] | IC50 [4] [nM] | Change in NAMPT enzyme binding on modification of the TN Unit, relative to parent NAMPTi compound (NAMPT; FP assay, in words) |
| --- | --- | --- | --- | --- | --- | --- |
| Nc1ccccc1C(=O)N1CCC(CCCCNC(=O)/C=C/c2cccnc2)CC1 [compound 5, (E)-N-(4-(1-(2-Aminobenzoyl)Piperidin-4-Yl)Butyl)-3-(Pyridin-3-Yl)Acrylamide] | 101 | 35 | 40 | 694 | 1000 |  |
| O=C(/C=C/c1cccnc1)NCCCCC1CCN(C(=O)c2ccc(OCCO)cc2)CC1 [compound 10, (E)-N-(4-(1-(4-(2-Hydroxyethoxy)Benzoyl)Piperidin-4-Yl)Butyl)-3-(Pyridin-3-Yl)Acrylamide] | 91 |  |  |  |  |  |
| O=C(/C=C/c1cccnc1)NCCCCC1CCN(C(=O)c2cccc(O)c2)CC1 [compound 6, (E)-N-(4-(1-(3-Hydroxybenzoyl)Piperidin-4-Yl)Butyl)-3-(Pyridin-3-Yl)Acrylamide] | 36 | 20 | 8 | 193 | 29 |  |
| O=C(/C=C/c1cccnc1)NCCCCC1CCN(C(=O)c2ccccc2O)CC1 [compound 8, (E)-N-(4-(1-(2-Hydroxybenzoyl)Piperidin-4-Yl)Butyl)-3-(Pyridin-3-Yl)Acrylamide] | 101 | 87.3 | 99 | 643 | 221 |  |
| O=C(/C=C/c1cccnc1)NCCCCC1CCN(C(=O)c2ccccc2)CC1 [FK-866, reference compound] |  | 7.32 | 6.64 | 36.2 | 5.45 |  |
| Nc1ccc(C(=O)N2CCC(CCCCNC(=O)/C=C/c3cccnc3)CC2)cc1 [compound 4, (E)-N-(4-(1-(4-Aminobenzoyl)Piperidin-4-Yl)Butyl)-3-(Pyridin-3-y1)Acrylamide] | 114 |  |  |  |  |  |
| N#C/N=C(\NCCCCCCCC(=O)N1CCC(O)CC1)Nc1ccncc1 [compound 82, (E)-2-Cyano-1-(8-(4-Hydroxypiperidin-1-Yl)-8-Oxooctyl)-3-(Pyridin-4-Yl)Guanidine] |  | 39 | 10 | 169 | 25 |  |
| O=C(/C=C/c1cccnc1)NCCCCC1CCN(C(=O)c2ccc(O)cc2)CC1 [compound 7, (E)-N-(4-(1-(4-Hydroxybenzoyl)Piperidin-4-Yl)Butyl)-3-(Pyridin-3-Yl)Acrylamide] | 79 |  |  |  |  |  |
| O=C(CCCCCCNc1c(Nc2ccncc2)c(=O)c1=O)N(OCCN1CCOCC1)C1CCCCC1 [compound 52, reference compound] | 41 | 4.76 | 5.26 | 39 | 8.75 |  |
| Nc1cccc(C(=O)N2CCC(CCCCNC(=O)/C=C/c3cccnc3)CC2)c1 [compound 3] | 40 | 8.5 | 7 | 38.5 | 8 |  |
| O=C(/C=C/c1cccnc1)NCCCCC1CCN(C(=O)c2cccc(OCCO)c2)CC1 [compound 9, (E)-N-(4-(1-(3-(2-Hydroxyethoxy)Benzoyl)Piperidin-4-Yl)Butyl)-3-(Pyridin-3-Yl)Acrylamide] | 80 |  |  |  |  |  |
| N#CN=C(NCCCCCCOc1ccc(Cl)cc1)Nc1ccncc1 [CHS-828, reference compound] |  | 2.22 | 4.62 | 8.02 | 1.16 |  |

The next lines start with results.

| IC50 (NAMPT) [nM] | Structure (SMILES) | IC50 [1] [nM] | IC50 [2] [nM] | IC50 [3] [nM] | IC50 [4] [nM] | Change in NAMPT enzyme binding on modification of the TN Unit, relative to parent NAMPTi compound (NAMPT; FP assay, in words) |
| --- | --- | --- | --- | --- | --- | --- |
| 27 | O=C(CCCCCCCNc1c(Nc2ccncc2)c(=O)c1=O)N1CC(O)C1 [compound 68] | 1000 | 811 | 1000 | 1000 |  |
| 24 | O=C(CCCCCCCNc1c(Nc2ccncc2)c(=O)c1=O)N(CCO)Cc1ccco1 [compound 66] | 22.5 | 26.9 | 209 | 59.8 |  |
| 32 | CN(CCO)C(=O)CCCCCCCN/C(=N\C#N)Nc1ccncc1 [compound 83, (E)-8-(2-Cyano-3-(Pyridin-4-Yl)Guanidino)-N-(2-Hydroxyethyl)-N-Methyloctanamide] | 51.2 | 153 | 886 | 75.4 |  |
| 29 | CN(CCO)C(=O)CCCCCCCNc1c(Nc2ccncc2)c(=O)c1=O [compound 72] | 1000 | 807 | 1000 | 1000 |  |
| 17 | CN(CC1(CO)CCCC1)C(=O)CCCCCCCN/C(=N\C#N)Nc1ccncc1 [compound 80, (E)-8-(2-Cyano-3-(Pyridin-4-Yl)Guanidino)-N-((1-(Hydroxymethyl)Cyclopentyl)Methyl)-N-Methyloctanamide] | 0.78 | 1.63 | 6.12 | 1.08 |  |
| 62 | CCN(CCON(C(=O)CCCCCCNc1c(Nc2ccncc2)c(=O)c1=O)C1CCCCC1)C(=O)c1cccc(N)c1 [compound 60] | 31 | 8 | 126 | 35 |  |
| 82 | CN(CCON(C(=O)CCCCCCNC(=O)Nc1ccncc1)C1CCCCC1)C(=O)c1cccc(N)c1 [compound 43, 3-Amino-N-(2-((N-Cyclohexyl-7-(3-(Pyridin-4-Yl)Ureido)-Heptanamido)Oxy)Ethyl)-N-Methylbenzamide] | 3 | 6 | 8 | 4 | significant improvement in binding relative to parent compound 30 |
| 35 | CN(CC1(CO)CCCC1)C(=O)CCCCCCCNc1c(Nc2ccncc2)c(=O)c1=O [compound 69, 8-((3,4-Dioxo-2-(Pyridin-4-Ylamino)Cyclobut-1-En-1-Yl)Amino)-N-((1-(Hydroxymethyl)Cyclopentyl)Methyl)-N-Methyloctanamide] | 9.12 | 18 | 96.9 | 12.5 |  |
| 24 | N#C/N=C(\NCCCCCCCC(=O)N(CCO)Cc1ccco1)Nc1ccncc1 [compound 81, (E)-8-(2-Cyano-3-(Pyridin-4-Yl)Guanidino)-N-(Furan-2-Ylmethyl)-N-(2-Hydroxyethyl)Octanamide] | 1.6 | 2.07 | 17.7 | 6.44 |  |
| 16 | O=C(CCCCCCCNc1c(Nc2ccncc2)c(=O)c1=O)N1CCC(O)CC1 [compound 67] | 265 | 108 | 1000 | 948 |  |
